Measurements published in the supplement of paper PMC4932681.
Where a name gives a salt, the structure may show the parent alone.

How the values were obtained:
Assay in all cases: viability inhibition at highest dose (% inhibition); higher = more growth inhibition
[1] = test system: ZR-75-1 Tam2; conditions: 4-OH-tamoxifen in medium 1 µM; 72 h
Experimental: (§1)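 Percent inhibition of viability (CellTiter-Glo, 72 h) at the highest tested concentration (D5), normalised to DMSO (0%) and 100 µM benzethonium chloride (100%). Resistant lines and the 'in 1µM tamoxifen' arms were tested in 1 µM 4-OH-tamoxifen.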

[2] = test system: ZR-75-1 Tam1; conditions: 4-OH-tamoxifen in medium 1 µM; 72 h
Experimental: as §1

[3] = test system: MCF-7; conditions: 72 h
Experimental: as §1

[4] = test system: T-47D Tam2; conditions: 4-OH-tamoxifen in medium 1 µM; 72 h
Experimental: as §1

[5] = test system: T-47D; conditions: 72 h
Experimental: as §1

[6] = test system: BT-474; conditions: 72 h
Experimental: as §1

[7] = test system: T-47D Tam1; conditions: 4-OH-tamoxifen in medium 1 µM; 72 h
Experimental: as §1

[8] = test system: BT-474 Tam2; conditions: 4-OH-tamoxifen in medium 1 µM; 72 h
Experimental: as §1

[9] = test system: BT-474 Tam1; conditions: 4-OH-tamoxifen in medium 1 µM; 72 h
Experimental: as §1

[10] = test system: MCF-7 Tam1; conditions: 4-OH-tamoxifen in medium 1 µM; 72 h
Experimental: as §1

[11] = test system: ZR-75-1; conditions: 72 h
Experimental: as §1

Structure (SMILES) | viability inhibition at highest dose [1] | viability inhibition at highest dose [2] | viability inhibition at highest dose ([3]; 4-OH-tamoxifen in medium 0 µM) | viability inhibition at highest dose ([3]; 4-OH-tamoxifen in medium 1 µM) | viability inhibition at highest dose [4] | viability inhibition at highest dose ([5]; 4-OH-tamoxifen in medium 0 µM) | viability inhibition at highest dose ([5]; 4-OH-tamoxifen in medium 1 µM) | viability inhibition at highest dose ([6]; 4-OH-tamoxifen in medium 0 µM) | viability inhibition at highest dose ([6]; 4-OH-tamoxifen in medium 1 µM) | viability inhibition at highest dose [7] | viability inhibition at highest dose [8] | viability inhibition at highest dose [9] | viability inhibition at highest dose [10] | viability inhibition at highest dose ([11]; 4-OH-tamoxifen in medium 0 µM) | viability inhibition at highest dose ([11]; 4-OH-tamoxifen in medium 1 µM)
CNC(=O)c1ccc(N2C(=S)N(c3ccc(C#N)c(C(F)(F)F)c3)C(=O)C2(C)C)cc1F [Enzalutamide (MDV 3100)] (drug 10000 nM) | 5.9 | 6.65 | -11.1 | 14.2 | 7.78 | -6.05 | 1.03 | -1.06 | -10 | 14 | 14.2 | 7.43 | 5.74 | -12.4 | -0.801
CC1=C2C[C@H]3[C@@H](CC=C4C[C@@H](O)CC[C@@]43C)[C@@H]2CC[C@]12O[C@@H]1C[C@H](C)CN[C@H]1[C@H]2C [Cyclopamine] (drug 10000 nM) | -6.35 | -2.07 | -20.5 | -1.78 | 1.98 | -17.5 | -14 | -4.32 | -7.93 | -2.15 | -2.39 | 0.632 | -8.03 | -9.96 | -4.21
CO[C@@H]1[C@H](N(C)C(=O)c2ccccc2)C[C@H]2O[C@]1(C)n1c3ccccc3c3c4c(c5c6ccccc6n2c5c31)C(=O)NC4 [Midostaurin (PKC412)] (drug 10000 nM) | -15.6 | -11.5 | 18.9 | 17 | 25.1 | 18.3 | 39.4 | 23.7 | 40.4 | 34.6 | 19.4 | 27.5 | 17.7 | -11.7 | 0.532
COc1cc2c(Oc3ccc(NC(=O)C4(C(=O)Nc5ccc(F)cc5)CC4)cc3F)ccnc2cc1OCCCN1CCOCC1 [Foretinib (Foretinib)] (drug 1000 nM) | 19.5 | 9.43 | 16.9 | 20.7 | 28.5 | 20.6 | 17.8 | 1.4 | 44.6 | 19 | 10.3 | 31.4 | 26.2 | 0.383 | 13.7
CS(=O)(=O)c1ccc(C(=O)Nc2ccc(Cl)c(-c3ccccn3)c2)c(Cl)c1 [Vismodegib] (drug 10000 nM) | 10.7 | 5.76 | 8.35 | 5.18 | 3.9 | 3.38 | 6.47 | 2.54 | 9.28 | -0.759 | 6.56 | 18.7 | 10.9 | -1.58 | 4.37
COC1=CC(c2cc3ccccc3[nH]2)=N/C1=C\c1[nH]c(C)cc1C [Obatoclax (GX15-070)] (drug 10000 nM) | 50.8 | 23.7 | 45.6 | 75.8 | 36.8 | 47 | 44.1 | 68.9 | 18.9 | 67.3 | 86.7 | 36.3 | 51.1 | 32.5 | 31.2
NCC(=O)CCC(=O)O [Aminolevulinic acid] (drug 10000 nM) | -5.25 | -7.01 | -30.6 | 7.57 | 5.5 | -13.1 | -10.6 | -15.6 | -12.3 | -0.747 | -2.75 | 4.33 | -9.27 | -15.3 | -7.45
COCC[n+]1c2c(n(Cc3cnccn3)c1C)C(=O)c1ccccc1C2=O [YM155] (drug 10000 nM) | 95.8 | 99.6 | 99.8 | 99.1 | 94.1 | 98.1 | 98.6 | 99 | 100 | 96.1 | 98.6 | 99.4 | 98.9 | 96 | 98
Cn1cnc2c(F)c(Nc3ccc(Br)cc3F)c(C(=O)NOCCO)cc21 [MEK-162 (ARRY-162)] (drug 1000 nM) | 7.88 | -1.39 | 12.2 | 20.8 | 14.1 | -6.66 | -10.7 | -13.3 | 6.81 | 17.2 | -1.22 | 2.68 | 10.4 | -6.09 | -7.06
COc1cc2c(Oc3ccc4[nH]c(C)cc4c3F)ncnc2cc1OCCCN1CCCC1 [Cediranib (AZD2171, Recentin)] (drug 1000 nM) | 5.44 | 4.06 | 11.5 | 2.46 | 2.12 | 2.79 | 7.26 | 1.02 | 39.4 | 2.94 | 6.19 | 15.2 | 1.79 | 9.26 | 4.94
Nc1nc(Cl)nc2c1ncn2[C@H]1C[C@H](O)[C@@H](CO)O1 [Cladribine] (drug 1000 nM) | 20 | 21 | -15.2 | 6.39 | 11.4 | -1.69 | -2.3 | -15.8 | -9.47 | 25.8 | -11.6 | -9.7 | -0.292 | 15.2 | 15.8
Nc1nc2[nH]cnc2c(=S)[nH]1 [Thioguanine] (drug 10000 nM) | 32.6 | 37.8 | 55.7 | 46.2 | 41.7 | 36.5 | 23.8 | 11.1 | 20.1 | 50.6 | 24 | 28.5 | 28.6 | 43.6 | 32.5
N.N.[Cl][Pt][Cl] [Cisplatin] (drug 10000 nM) | -1.7 | 3.43 | -20.9 | 0.697 | 8.3 | -16.1 | -8.72 | -3.72 | -4.53 | -3.02 | 2.59 | -9.25 | 3.44 | -8.66 | -5.04
CNC(=O)c1cc(Oc2ccc(NC(=O)Nc3ccc(Cl)c(C(F)(F)F)c3)c(F)c2)ccn1 [Regorafenib (BAY 73-4506)] (drug 10000 nM) | 32.6 | 22.4 | 52.7 | 33.5 | 16.3 | 29.1 | 18.2 | 38 | 73 | 31.3 | 76.2 | 93.1 | 18.1 | 17 | 18.3
Clc1ccc(Nc2nnc(Cc3ccncc3)c3ccccc23)cc1 [Vatalanib] (drug 10000 nM) | 6.59 | -0.807 | -22.9 | 8.24 | 7.23 | -9.2 | -8.84 | -9.23 | 0.775 | 26.3 | 10.3 | 10.7 | -1.69 | -6.3 | -2.47
Nc1cccc2c1CN(C1CCC(=O)NC1=O)C2=O (stereo not given) [Lenalidomide] (drug 10000 nM) | -0.811 | 2.97 | -4.99 | 29.1 | -4.53 | -20.4 | -6.19 | -5.28 | -16.5 | -2.5 | 2.75 | 5.58 | -1.73 | -8.43 | -6.55
Nc1ncn([C@H]2C[C@H](O)[C@@H](CO)O2)c(=O)n1 [Decitabine (Dacogen)] (drug 10000 nM) | -2.91 | -4.61 | 17.6 | 2.36 | -3.18 | -15 | -11.2 | -1.68 | -2.07 | -9.55 | -4.48 | -15.7 | -12.3 | -8.36 | -6.99
CC(O)(CS(=O)(=O)c1ccc(F)cc1)C(=O)Nc1ccc(C#N)c(C(F)(F)F)c1 (stereo not given) [Bicalutamide] (drug 10000 nM) | -0.971 | -0.584 | -0.676 | 5.7 | 14.4 | -16.4 | 10.8 | -18.1 | -8.62 | 5.87 | -6.57 | -10.4 | -6.64 | -10.4 | 1.52
O=P(O)(NCCCl)NCCCl [Ifosfamide mustard] (drug 10000 nM) | 0.309 | 1.78 | -19.2 | -14.2 | -1.32 | -13.8 | -10.1 | -4.47 | -15.1 | -3.5 | -5.04 | -11.5 | -11 | -10.9 | -4.6
C[C@@H]1C[C@H]2[C@@H]3CCC4=CC(=O)C=C[C@]4(C)[C@@]3(F)[C@@H](O)C[C@]2(C)[C@@]1(O)C(=O)CO [Dexamethasone  (Decadron)] (drug 10000 nM) | 12.7 | 3.7 | -5.26 | 18 | 10.6 | -14.5 | -19 | -8.58 | -20.8 | 1.63 | -0.0711 | 3.71 | -7.5 | -4.79 | -6.32
Cn1c(=O)c(F)c(Nc2ccc(I)cc2F)c2c(=O)n(C[C@@H](O)CO)cnc21 [TAK-733] (drug 1000 nM) | -5.15 | 0.97 | 16.8 | 22.9 | 16.5 | -7.47 | -14.5 | 3.01 | 18.7 | 25.4 | 14.3 | 7.81 | 13.8 | -7.07 | -1.35
O=S(=O)(c1cccc2cnccc12)N1CCCNCC1 [Fasudil  (HA-1077)] (drug 50000 nM) | -8.22 | 3.21 | 21 | -0.98 | 20.1 | -20.9 | -12.4 | -7 | -17.4 | 2.59 | -12.9 | -5.55 | 7.1 | -7.56 | -6.81
Nc1nc(=O)c2c([nH]1)NCC(CNc1ccc(C(=O)N[C@@H](CCC(=O)O)C(=O)O)cc1)N2C=O (mixture of isomers) [Folinic acid] (drug 990000 nM) | 5.23 | 1.59 | 0.626 | 3.23 | -14.6 | 3.41 | -2.78 | 1.3 | -8.34 | -0.031 | 3.09 | 3.17 | -1.58 | 3.64 | -3.47
Cc1cnc(NC(=O)Nc2cc(Br)c(C)cc2OC[C@@H]2CNCCO2)cn1 (drug 1000 nM) | -1.67 | -1.46 | 26.1 | 16.2 | -5.37 | -9.68 | -8.57 | -10.6 | 0.148 | -0.37 | -6.01 | 5 | -4.01 | -7.46 | -6.55
O=C(/C=C/c1cccc(S(=O)(=O)Nc2ccccc2)c1)NO [Belinostat  (PXD101)] (drug 10000 nM) | 51.5 | 39.5 | 89.5 | 86.8 | 70.4 | 95.6 | 94.8 | 91.3 | 97.1 | 92 | 77.2 | 89 | 22.8 | 38.9 | 38.7
Cn1c(CCCC(=O)O)nc2cc(N(CCCl)CCCl)ccc21 [Bendamustine (hydrochloride hydrate)] (drug 10000 nM) | 5.86 | -0.263 | 17.8 | -4.09 | -2.82 | -0.126 | -12.1 | -0.115 | -10.7 | 0.785 | -4.38 | -12.7 | -4.92 | -7.06 | -2.1
CNCc1ccc(-c2[nH]c3cc(F)cc4c3c2CCNC4=O)cc1 (drug 10000 nM) | 0.703 | -4.62 | 6.6 | 1.15 | 6.84 | -7.27 | -9.52 | -3.44 | -1.93 | 1.19 | -16.6 | 2.87 | -2.56 | -4.71 | -4.07
